{
  "source": "patent US12059565B1",
  "about": "“Methods and systems for modulating unconsciousness or anesthesia in a subject” (priority 2019, dated 2024)",
  "key": {"[1]": {"tested_on": "EEG SWA / behavioral responsiveness", "details": "during TCI dexmedetomidine sedation; expected, based on Sleigh and colleagues", "source_text": "Participants will undergo three arousals during this phase of the experiment: one during in-phase stimulation, one during anti-phase stimulation, and one during sham stimulation (FIG. 13). The order of CLASS conditions under which a participant will be aroused is the same as in Phase 2, which is balanced across participants. Each arousal will be preceded by at least three consecutive minutes of acoustic stimulation, which will continue during the arousal procedure. The arousal procedure consists of the same ramping thermal stimulation used during pre-sedation QST. The cardinal difference between pre-sedation QST and arousal QST is that one of the investigators will be tasked with pressing the button to end the thermal ramp instead of the sedated participant. The investigator will end the arousal protocol as soon as they observe purposeful behavior in response to the thermal stimulation. The investigator will also be able to terminate the thermal stimulation at their clinical discretion. Vital signs, EEG, and video recording will allow review of the time of arousal during post-hoc analysis. […] Assessors of arousal will be blinded to the acoustic stimulation conditions. Once a participant has been definitively aroused, thermal stimulation will cease. […]"}, "[2]": {"details": "healthy volunteers; conservative estimate; cited from earlier work"}, "[3]": {"details": "infused for several hours to days at 1.5 mcg/kg/hr, critically ill patients; cited from earlier work"}, "alpha2 receptors": {"tested_on": "alpha2 receptors", "details": "cited from earlier work"}, "[4]": {"details": "target effect site concentrations of 2.0-4.0 ng/ml, most participants"}},
  "data": [
    {"smiles": "Cc1cccc([C@H](C)c2cnc[nH]2)c1C", "note": "[dexmedetomidine]", "values": [
      {"measurement": "time for EEG SWA to return to pre-arousal levels", "setting": "[1]", "value": "≤ 10", "unit": "min"},
      {"measurement": "time to return to a state of unresponsiveness after thermal arousal", "setting": "[1]", "value": "≤ 60", "unit": "s"},
      {"measurement": "equilibration constant (t1/2 ke0)", "setting": "[2]", "value": 3, "unit": "min"},
      {"measurement": "steady-state concentration", "setting": "[3]", "value": "2.5 to 3.0", "unit": "ng/mL"},
      {"measurement": "most common adverse events", "setting": "alpha2 receptors; dexmedetomidine infusions", "value": "bradycardia, hypotension and hypertension"},
      {"measurement": "haemodynamic effect at low plasma concentrations", "setting": "alpha2 receptors; plasma concentration <1 ng/ml, agonism at alpha2 receptors in the central nervous system", "value": "decrease in peripheral vascular resistance and heart rate"},
      {"measurement": "haemodynamic effect at higher plasma concentrations", "setting": "alpha2 receptors; plasma concentration >4 ng/ml, agonism at alpha2 receptors on vascular smooth muscle", "value": "hypertension and worsening reflex bradycardia"},
      {"measurement": "HR", "setting": "alpha2 receptors; [4]", "value": "> 75", "unit": "% from baseline"},
      {"measurement": "MAP", "setting": "alpha2 receptors; [4]", "value": "near-baseline"},
      {"measurement": "level of sedation", "setting": "alpha2 receptors; [4]", "value": "moderately sedated"}
    ]}
  ]
}
